The values that follow come from US12403132B2, “Methods of treating bone marrow failure syndromes and compositions for use in the same” (The Board of Trustees of the Leland Stanford Junior …, priority 2020, dated 2025).

Read-outs that look alike come from different tables or passages of the source.

The term EC50 denotes the concentration that produces a half-maximal response. The inhibition is the percentage by which the read-out fell short of the control.

For one assay, the target named is T1, NLK (Homo sapiens, UniProt Q9UBE8).
T1 sequence (Q9UBE8 1-527): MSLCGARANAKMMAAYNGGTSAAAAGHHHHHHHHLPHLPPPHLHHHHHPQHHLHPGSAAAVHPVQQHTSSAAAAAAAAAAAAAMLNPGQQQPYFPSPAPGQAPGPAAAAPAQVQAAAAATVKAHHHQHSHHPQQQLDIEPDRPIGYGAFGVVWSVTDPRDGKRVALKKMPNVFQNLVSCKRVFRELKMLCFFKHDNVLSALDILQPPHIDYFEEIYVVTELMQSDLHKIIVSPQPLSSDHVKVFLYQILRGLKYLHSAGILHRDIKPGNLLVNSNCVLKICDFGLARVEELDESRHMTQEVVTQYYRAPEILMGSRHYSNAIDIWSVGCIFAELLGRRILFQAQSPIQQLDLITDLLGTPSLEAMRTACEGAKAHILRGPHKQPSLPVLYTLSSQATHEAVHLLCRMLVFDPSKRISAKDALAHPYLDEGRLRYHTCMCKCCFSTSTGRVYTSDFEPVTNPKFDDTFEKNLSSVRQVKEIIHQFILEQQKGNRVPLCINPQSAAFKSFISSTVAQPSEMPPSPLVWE
In words: NLK in vitro kinase assay, compound added to active NLK immunopurified from Kp53A1 cells. Format: biochemical. Details: inhibition of NLK kinase activity in vitro: dose or concentration left out as unconfirmed. The note with it: for NLK activity with compound added to activated NLK in in vitro kinase assay: 0, 50 nM, 50 μM or 50 mM, 30 mins. The method, then: FIG. 6. […] (a) Schematic of assay utilized to screen compounds for effects on erythroid progenitor cell expansion. Lin-Kit+fetal liver cells were obtained from mouse embryos expressing tet-on shRNA against RPS19, at day E14.5-15.5. Cells were plated at 2000 cell per well in 96-well plates in the presence or absence of doxycycline. Relative amounts of live cells were quantified by luciferase-based Cell titer-Glo® assay. (b) TGFβR1 inhibitors including SB431542 were assessed for their ability to increase cell expansion in RPS19-insuffiency. As a control, untreated (no doxycycline) is represented at the far left while all other samples were treated with doxycycline to induce RPS19-insufficiency. (c) Kit+ erythroid progenitors were grown in the absence of doxycycline and in the presence of 10 μM of indicated compound. As a comparison, samples with no inhibitor added are represented in grey. In addition, cells were either left untreated, or treated with 5 ng/ml of TGFβ1 for 5 days before being subjected to Cell TiterGlo® assay. (d) Schematic indicating Smad2 and Smad3 serve as substrates for activated TGFβR1 while NLK, c-Myb and raptor serve as substrates for activated NLK (upper panel). K562 cells were stimulated with 5 ng/ml TGFβ1 for 10 min and TGFβR1 was immunopurified after cell lysis and protein normalization. TGFβR1 was added to purified Smad2 (middle panel) and Smad3 (lower panel) in the presence of ATP and Mg^2+ at 37° C. for 30 min. As per NLK kinase assay, phosphorylation of substrates was detected by antibody raised against phosphorylated serine residues. Compounds with inhibitory properties against TGFβR1, other TGFB pathway factors, or NLK expression were added to the kinase reactions at concentrations known to inhibit TGFB signaling.
FIG. 10. […] (Panel A) Control (shLuc—grey columns) or RPS19-insufficient (shRPS19-—black columns) progenitors were differentiated in erythroid media alone, vehicle or vehicle containing 50 mM metformin or 5 uM SD208 for 5 days. 5000 cells per treatment were lysed and immunopurified NLK was subjected to in vitro kinase assay to determine phosphorylation potential against 3 recognized NLK substrates; NLK itself (upper), c-Myb (middle) or raptor (bottom). (Panel B) Simultaneously, qRT-PCR was performed to examine NLK (upper) and RPS19 (lower) mRNA expression. (Panel C) Active NLK was purified from activated Kp53A1 cells and subjected to in vitro kinase assay in the presence of 0, 50 nM, 50 μM, or 50 mM metformin or SD208. The phosphorylation of NLK (upper), c-Myb (middle) and raptor (lower) was determined after 30 mins. (Panel D) CD34+ progenitors were transduced with a combination of either shRNA against luciferase (shLuc—grey columns) or RPS19 (shRPS19—black columns) and siRNA against a non-targeting sequence (NT) or NLK (siNLK). After 14 days differentiation in the presence or absence of metformin, cells were counted and the percentage of cells with surface expression of CD235 and CD11b were determined by flow cytometry, to yield the number of CD235+ erythroid (upper) and CD11b+ myeloid (lower) cells. The total number of cells is expressed as a percentage of the number of each cell type in the control (untreated/shLuc/NT). […] Statistics: two-tailed Student's t test, significant *P<0.05
For NLK kinase analysis, cultures were treated as indicated and lysed for 30 min at 4° C. in 750 μl of kinase lysis buffer (50 mM Tris [pH 7.4], 5 mM EDTA, 250 mM NaCl, 0.1% Triton X-100, 50 mM NaF, 0.1 trypsin inhibitor unit of aprotinin per ml, 50 μg of phenylmethylsulfonyl fluoride per ml, 100 μM sodium vanadate, 1 μg of leupeptin per ml).

The subject of the next assay is CD235+ erythroblasts. Put plainly: CD235+ erythroid expansion of differentiating human cord blood CD34+ progenitors (shRPS19/shRPL11 DBA models), flow cytometry. The note with it: for erythroid expansion in RPS19-insufficiency: alone and combined; for increase of CD235+ erythroid expansion / CD235+ erythroid expansion, % of control: 50 mM metformin; for CD235+ erythroid expansion, % of control: 14 days. Details: increase of erythroid expansion / impact on erythropoiesis in healthy controls / erythroid expansion in RPS19-insufficiency: dose or concentration left out as unconfirmed. In kind it is cell-based. For orientation: Flow cytometry measures light scatter and fluorescence of single cells or particles in a stream.

Where [1] appears, read: panel assessed at 0.1, 1 and 10 μM, compared with TGFβR1 at 1 μM.

Regarding `Fc1ccc(Cl)cc1-c1nc(Nc2ccncc2)c2nccnc2n1` [SD208], on NLK, the “NLK activity with compound added to activated NLK in in vitro kinase assay” value is “robustly inhibited”. Besides, at NLK (5 μM), the “inhibition of NLK phosphorylating NLK” value is reported as 84.3%, the “inhibition of NLK phosphorylating Raptor” value worked out at 89.1% and the “inhibition of NLK phosphorylating c-Myb” value is listed as 79.7%. The “inhibition of NLK activity in vitro” value at NLK (setting [1]) was “approximately 80%”. Also, the “CD235+ erythroblast expansion, % of controls” value with CD235+ erythroblasts (RPS19-insufficient, SD208 and/or siRNA against NLK, 15 days) was found to be 40.3%. In addition, the “erythroid expansion, % of untreated controls” value in the assay on CD235+ erythroblasts (control shRNA, SD208 5 μM, 15 days) is on record as “approximately 105%”.

`CC(C)=CCC[C@](C)(O[C@@H]1O[C@H](CO[C@@H]2O[C@H](CO)[C@@H](O)[C@H](O)[C@H]2O)[C@@H](O)[C@H](O)[C@H]1O)[C@H]1CC[C@]2(C)[C@@H]1[C@H](O)C[C@@H]1[C@@]3(C)CC[C@H](O[C@@H]4O[C@H](CO)[C@@H](O)[C@H](O)[C@H]4O[C@@H]4O[C@H](CO)[C@@H](O)[C@H](O)[C@H]4O)C(C)(C)[C@@H]3CC[C@]12C` [ginsenoside Rb1]: the “inhibition of NLK kinase activity in vitro” value on NLK (substrates Raptor, c-Myb, NLK) is given as “failed to inhibit”. Besides, in the assay on CD235+ erythroblasts, the “concentration at which 90% potency is achieved” value is listed as 8.6 mM, the “impact on erythropoiesis in healthy controls” value is “did not significantly impact” and the “erythroid expansion in RPS19-insufficiency” value is on record as 20.9%. The “improvement of erythroid expansion” value in the assay on CD235+ erythroblasts (RPS19-insufficiency, ginsenoside and/or siRNA against NLK) is 2.7 fold. Besides, the “increase of erythroid expansion” value in the assay on CD235+ erythroblasts (RPS19-insufficiency, miRNA and/or drug) came out at 2.52 fold. Besides, the “increase of erythroid expansion” value in the assay with CD235+ erythroblasts (RPS19-insufficient progenitors) is recorded as 2.6 fold. Also, the EC50 with CD235+ erythroblasts (read-out: EC50 value (erythroid expansion)) turned out to be 2.3 mM.

As for `CN(C)C(=N)N=C(N)N` [metformin], the “NLK activity with compound added to activated NLK in in vitro kinase assay” value on NLK is listed as “did not influence”. Moreover, the “concentrations at which significant erythroid improvement was detected” value in the assay on CD235+ erythroblasts was “above 8 mM”. The half-maximal effective concentration (EC50) in the assay on CD235+ erythroblasts (Homo sapiens, read-out: EC50 (erythroid expansion)) was found to be 11.4 mM. In addition, the results for the “increase of CD235+ erythroid expansion” value in the assay on CD235+ erythroblasts (RPL11-insufficiency) and with CD235+ erythroblasts (RPS19-insufficiency) were 2.0 fold and 5.9 fold, respectively. Also, the “CD235+ erythroid expansion, % of control” value in the assay on CD235+ erythroblasts (RPL11-insufficiency, 16.4% untreated) came to 32.7%; with CD235+ erythroblasts (RPS19-insufficiency, 5.7% untreated), 33.3%. In the assay with CD235+ erythroblasts (RPS19-insufficiency (8.3% of controls untreated), 12 days), the “improvement of erythropoiesis (CD235+)” value was 3.6 fold. Further, the “erythroid expansion in RPS19-insufficiency” value in the assay on CD235+ erythroblasts stood at 28.4%.

Turning to `Cc1cccc(-c2nn3c(c2-c2ccnc4ccc(C(N)=O)cc24)CCC3)n1` [Galunisertib], the inhibition at 1 µM at NLK (setting [1]) lay in the range of 40 to 45%.

Consider `NC(=O)c1ccc(-c2nc(-c3ccc4c(c3)OCO4)c(-c3ccccn3)[nH]2)cc1` [SB431542], for which, on NLK (setting [1]), the inhibition at 1 µM is approximately 55%.
